Calls of active or inactive are those of the source.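 The calls were made as follows: active = caspase luminescence falls with dose and the half-maximal concentration AC50 from the fitted curve is at or below a set limit; inconclusive = flat fit at 30 to 70% signal loss, or invalid fit; inactive = AC50 above the limit, or signal rises instead.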 Bounds are passed on as bounds.

As usually defined, the AC50 is the midpoint of the concentration-response curve, whichever way the signal moves.

In this assay the test system is INS-1E cytokine-induced caspase-3/7, Caspase-Glo luminescence, 48 h. As to the kind of experiment: suppression of cytokine-driven beta-cell apoptosis – INS-1E rat cells, luminescence, orthogonal assay for beta-cell apoptosis protection project, dose response (AID 463206).
`Cc1nc2c(-c3ccc(Cl)cc3)c(C)[nH]n2c(=O)c1Cc1ccccc1`: the AC50 was > 26 µM (inactive).
In the case of `COc1cccc(/C=N/NC(=O)CNC(=O)c2cccs2)c1O`, the AC50 was > 26 µM (inactive).
Consider `Cc1ccc(NS(=O)(=O)c2cc([N+](=O)[O-])ccc2NNC(=S)Nc2cc(C)ccc2C)c(C)c1`, for which the AC50 is > 26 µM (inactive).
For `COC(=O)C1CN(C#N)N(c2ccc(Cl)cc2)C12c1ccccc1-c1ccccc12` (centres undefined), the AC50 is > 26 µM (inactive).
In the case of `CCC(=NNC(=O)c1ccc2c(c1)nc(C)n2CC)c1cc(F)ccc1O` it was > 26 µM (inactive); in that of `Cc1ccc(C)c(S(=O)(=O)Nc2ccc(O)c3ccccc23)c1`, > 26 µM (inactive).
Take `O=C(C(Sc1ccccc1)c1ccccc1)N1CCN(c2ccccc2F)CC1` (centres undefined): the AC50 was > 26 µM (inactive).
To `O=[N+]([O-])c1ccc(-[n+]2ccc3ccccc3c2)c([N+](=O)[O-])c1` belongs > 26 µM (inactive); to `O=[N+]([O-])c1ccc(N=Nc2c(Cl)cc(O)cc2Cl)cc1`, > 26 µM (inactive).
For `CCCCCCSc1cc(-c2nc3ccc(C)cn3c2NCCCC)ccc1OC`, the AC50 was > 26 µM (inactive).
As to `O=C(COc1ccc2ccccc2c1)N1CCN(Cc2c[nH]c3ccccc23)CC1`, the AC50 was > 26 µM (inactive).
Regarding `Cc1cc(C2CCCCC2)n(O)c(=O)c1`, the AC50 is > 26 µM (inactive).
`O=C(Nc1nc2c(F)cc(F)cc2s1)c1ccccn1`: the AC50 is > 26 µM (inactive).
As to `COC1=CC(=O)[C@]2(C=C1OC)OC[C@@H]1Oc3c(ccc4c3C=CC(C)(C)O4)C(=O)[C@@H]12`, the AC50 is > 26 µM (inactive).
For the compound `Nc1c(N(CCC2=CCCCC2)C(=O)COc2ccc(F)cc2)c(=O)[nH]c(=O)n1Cc1ccccc1`, the AC50 was > 26 µM (inactive).
On to `COc1ccc(CC2(CO)CCN(CC3=Cc4cc(Cl)ccc4OC3)CC2)cc1`, for which the AC50 is > 26 µM (inactive).
As for `Fc1ccc2nc(Nc3nc4c(F)cc(F)cc4s3)sc2c1`, the AC50 was > 26 µM (inactive).
For the compound `CC(C)C[C@H]1CN=C(Nc2ccccc2)N1CCc1ccc(F)cc1`, the AC50 is > 12 µM (inactive).
Take `C=C1C(=O)O[C@@H]2C[C@@H](C)[C@@H]3C=CC(=O)[C@@]3(C)[C@@H](OC(C)=O)[C@H]12`: the AC50 was > 26 µM (inactive).
In the case of `Cc1[nH]n(-c2ccccc2)c(=O)c1N=Nc1c(O)cc(S(=O)(=O)N(C)C)c2ccccc12` it was > 26 µM (inactive); in that of `COc1ccc2nc(C)cc(N/N=C/c3ccc(F)cc3)c2c1`, > 26 µM (inactive); in that of `COc1ccc(C(=O)/C(C#N)=N/Nc2ccc([N+](=O)[O-])cc2)cc1`, > 26 µM (inactive).
In the case of `COc1cccc(CN(C)C(=O)c2cc(COc3ccc4ncccc4c3)on2)c1` it was > 26 µM (inactive); in that of `CC(C)(C)c1cnnn1-c1ccc(/C=N/Nc2ccc([N+](=O)[O-])cc2)cc1`, > 26 µM (inactive).
In the case of `c1ccc(CNc2c3ccccc3nc3ccccc23)cc1`, the half-maximal activity concentration (AC50) is 6.14 µM.
Turning to `CN(C)c1ccc(-c2cc(O)c3ncccc3c2)cc1`, the AC50 is > 26 µM (inactive).
To `CCN(c1ccccc1)S(=O)(=O)c1ccc(NC(=O)c2nc(S(C)(=O)=O)ncc2Cl)cc1` belongs > 26 µM (inactive); to `O=[N+]([O-])c1ccc(O)c(/C=N/Nc2ccccn2)c1`, > 26 µM (inactive).
Consider `Oc1c(Cl)cc(Cl)cc1/C=N/Nc1ncc(Br)cn1`, for which the AC50 was > 26 µM (inactive).
For the compound `CCOc1ccc(OCC)c(S(=O)(=O)NCCOC23CC4CC(CC(C4)C2)C3)c1`, the AC50 was 15.9 µM.
As for `OCCNc1nc(Nc2ccc(Cl)c(Cl)c2)nc2ccccc12`, the AC50 was > 26 µM (inactive).
To `Cc1c2ccncc2c(C)c2c1[nH]c1ccccc12` belongs 1.11 µM; to `Cc1cccc2sc(NNC(=O)c3ccc(S(=O)(=O)N4CCc5ccccc5C4)cc3)nc12`, > 26 µM (inactive).
Regarding `FC(F)(F)c1cccc(-c2nc3nc(Cl)c(Cl)nc3[nH]2)c1`, the AC50 was > 26 µM (inactive).
In the case of `CCCCCCCCCCOC(=O)Cn1c(COc2ccccc2C)[n+](C)c2ccccc21`, the AC50 is > 26 µM (inactive).
To `Cc1cccc(NC2=C(NC(=O)c3ccccc3)C(=O)c3ccccc3C2=O)c1` belongs > 26 µM (inactive); to `COCCNC(=O)CSC1=N/C(=C/c2ccc(Cl)c(Cl)c2)C(=O)N1c1ccccc1F`, > 26 µM (inactive); to `O=Nc1c(O)c2ccccc2c2ccccc12`, > 26 µM (inactive).
To `Cc1ccc(C)c(S(=O)(=O)N2CCN(Cc3ccc(O)c4ncccc34)CC2)c1` belongs > 26 µM (inactive).
Take `CCCCCCCNC1=CC(=O)CC(c2ccccc2)C1` (centres undefined): the AC50 was > 12 µM (inactive).
To `N#Cc1c(N2CCCCC2)nc(N2CCCCC2)c2c1CCN(Cc1ccccc1)C2` belongs > 26 µM (inactive); to `Cc1cccc(NC(=O)c2ccc([N+](=O)[O-])s2)c1C`, > 26 µM (inactive).
As for `CCc1cc(SC#N)cc(C)c1NC(=O)CCl`, the AC50 was > 26 µM (inactive).
For the compound `O=C(Oc1c(CN2CCOCC2)cc(Cl)c2cccnc12)c1ccccc1Br`, the AC50 was > 26 µM (inactive).
On to `c1ccc(-c2nnc(CSc3ccc4c(c3)OCCO4)o2)cc1`, for which the AC50 is > 26 µM (inactive).
Turning to `CCN(CC)c1ccc(/C=N/NC(=O)c2cccc(S(=O)(=O)N3CCOCC3)c2)c(O)c1`, the AC50 is > 26 µM (inactive).
Consider `Oc1ccccc1/C=N/Nc1nc2ccccc2o1`, for which the AC50 is > 26 µM (inactive).
Take `Cn1ncc2c(O/N=C(\N)c3ccc(C(C)(C)C)cc3)ncnc21`: the AC50 is > 26 µM (inactive).
On to `O=C(NCc1nc(-c2ccc(C(F)(F)F)cc2)no1)Nc1cc(Cl)cc(Cl)c1`, for which the AC50 was > 26 µM (inactive).
Regarding `Nc1ccc(Nc2ccc([N+](=O)[O-])cc2[N+](=O)[O-])cc1`, the AC50 was > 26 µM (inactive).
Consider `COCCCNC(=S)N/N=C/c1cccc(OC)c1O`, for which the AC50 was > 26 µM (inactive).
With `COc1cccc2sc(Nc3nc(-c4ccccn4)cs3)nc12`, the AC50 is > 26 µM (inactive).
Regarding `O=[N+]([O-])c1ccc(/C=N/n2c(CO)nc3ccccc32)s1`, the AC50 was > 26 µM (inactive).
To `CC1(C)CC(=O)C2=C(C1)OC1=C(C(=O)CC(C)(C)C1)C2c1ccc(O)cc1O` belongs > 26 µM (inactive); to `Cc1cccc(Oc2cc(NC(=O)c3ccccc3)cc([N+](=O)[O-])c2)c1`, > 26 µM (inactive); to `CCN(CC)c1ccc(/C=N/NC(=O)c2nnn(-c3nonc3N)c2C(C)C)c(O)c1`, > 26 µM (inactive).
Consider `CCOC(=O)c1sc(NC(=O)c2c(C)nn(Cc3ccccc3)c2C)cc1C`, for which the AC50 was > 26 µM (inactive).
On to `O=C(NCc1ccccc1)C1=C[C@@H](c2csc3ccccc23)C[C@@H](OCCCCO)O1`, for which the AC50 was > 26 µM (inactive).
For `O=C(Nc1ccc(Cl)cc1)Nc1nnc(CSCc2ccc(Cl)cc2)s1`, the AC50 was > 26 µM (inactive).
Consider `CC(Sc1nnc2c(n1)[nH]c1ccccc12)C(=O)N(C)C1CCCCC1` (centres undefined), for which the AC50 is > 12 µM (inactive).
As for `Cc1nc2ccc(NC(=O)c3cc(S(=O)(=O)N(C)c4ccccc4)ccc3Cl)cc2s1`, the AC50 is > 26 µM (inactive).
Take `COc1ccc(S(=O)(=O)N(C(=O)c2ccco2)c2cc3sc(=O)oc3c3ccccc23)cc1`: the AC50 was > 26 µM (inactive).
Regarding `CCN1CCN(Cc2ccc(NC(=O)c3cc(NC(=O)C(=O)c4c[nH]c5ccccc45)cc(OC)c3)cc2C(F)(F)F)CC1`, the AC50 was > 26 µM (inactive).
On to `Nc1nonc1-n1nnc(C(=O)N/N=C/c2cc(Br)ccc2O)c1CNc1ccccc1`, for which the AC50 was > 26 µM (inactive).
As to `c1ccc2c(c1)ncn2CCCOc1ccc2c(c1)CCC2`, the AC50 is > 26 µM (inactive).
To `Cc1cccc(/C=N/NC(=O)c2ccc3c(c2)OCCO3)c1O` belongs > 26 µM (inactive); to `Nc1c(C(=O)Nc2ccc(S(=O)(=O)N3CCCC3)cc2)sc2nc3cc4c(cc3cc12)CCC4`, > 26 µM (inactive); to `C/C(=N\NC(=O)c1ccc(Cl)c(Cl)c1)c1ccccn1`, > 26 µM (inactive).
On to `Oc1ccc2ccccc2c1/C=N/Nc1nnc(-c2ncc[nH]2)c2ccccc12`, for which the AC50 was > 26 µM (inactive).
As to `COC(=O)c1ccccc1NC1=C/C(=N\S(=O)(=O)c2cccs2)c2ccccc2C1=O`, the AC50 is > 26 µM (inactive).
In the case of `CCCCCn1c(=O)c(C(=O)Nc2nc3ccccc3[nH]2)c(O)c2ccccc21` it was > 26 µM (inactive); in that of `CC(C)COC(=O)c1ccc2c(c1O)C(=O)c1ccccc1C2=O`, > 26 µM (inactive).
Consider `Cc1cc(C)c[n+](C2=C([O-])c3ccccc3C(=O)/C2=N\S(=O)(=O)c2cccs2)c1`, for which the AC50 was > 26 µM (inactive).
With `Oc1c(CN2CCOCC2)cc(COCc2ccccc2)c2cccnc12`, the AC50 was > 26 µM (inactive).
With `Cc1ccccc1NC(=S)Nc1cccc2cnccc12`, the AC50 is > 26 µM (inactive).
To `CCCOc1ccc(/C=N/NC(=S)Nc2ccccc2[N+](=O)[O-])c(O)c1` belongs > 26 µM (inactive); to `Cc1cc([N+](=O)[O-])c2ccccc2[n+]1[O-]`, > 26 µM (inactive).
Regarding `Cc1ccc(S(=O)(=O)N2CCOCC2)cc1C(=O)Nc1nc(-c2ccccn2)cs1`, the AC50 was > 26 µM (inactive).
Regarding `COc1ccc(C(=O)/C(=C\c2ccco2)N2C=CC=CC2=C(C#N)C#N)cc1`, the AC50 was > 26 µM (inactive).
Regarding `O=C(/C(=C/c1ccc(Cl)cc1)c1nc2ccccc2[nH]1)c1ccccc1`, the AC50 is > 26 µM (inactive).
On to `CC1CCN(Cc2c(C(=O)N/N=C/c3cc(Br)ccc3O)nnn2-c2nonc2N)CC1`, for which the AC50 was > 26 µM (inactive).
Turning to `CCCOCc1ccc(O)c2ncccc12`, the AC50 was > 26 µM (inactive).
On to `COc1ccc(C(=O)C/C(=C\C(=O)c2ccc(C)cc2)c2ccccc2)cc1`, for which the AC50 is > 26 µM (inactive).
In the case of `O=C1/C(=N\S(=O)(=O)c2cccs2)C([n+]2ccc(CCCc3ccccc3)cc2)=C([O-])c2ccccc21`, the AC50 was > 12 µM (inactive).

(Values after PubChem BioAssay AID463206 (Broad Institute, 2010).)
